Data reported in the NIST ThermoML archive (doi:10.1021/acs.jced.5b00474).

Experiment: xn = mol fraction of the nth substance listed
Details: 101 kPa, Liquid; for mass density: Vibrating tube method; for speed of sound: Frequency=3 MHz, Sing-around technique in a fixed-path interferometer

CN1CCCC1=O [N-methylpyrrolidone] + CC#N
Details | mass density [kg/m3] | speed of sound [m/s]
293.15 K, x1 = 0.0997 | 826.597 | –
293.15 K, x1 = 0.2019 | 865.011 | –
293.15 K, x1 = 0.2953 | 895.168 | –
293.15 K, x1 = 0.4033 | 925.343 | –
293.15 K, x1 = 0.4999 | 948.634 | –
293.15 K, x1 = 0.5645 | 962.588 | –
293.15 K, x1 = 0.6971 | 987.869 | –
293.15 K, x1 = 0.7909 | 1002.68 | –
293.15 K, x1 = 0.8906 | 1018.29 | –
293.15 K, x1 = 1 | 1032.25 | –
298.15 K, x1 = 0.0997 | 821.365 | 1311.6
298.15 K, x1 = 0.2019 | 859.919 | 1345.4
298.15 K, x1 = 0.2953 | 890.188 | 1375
298.15 K, x1 = 0.4033 | 920.48 | 1407.6
298.15 K, x1 = 0.4999 | 943.847 | 1434.4
298.15 K, x1 = 0.5645 | 957.857 | 1450.8
298.15 K, x1 = 0.6971 | 983.231 | 1483.7
298.15 K, x1 = 0.7909 | 998.089 | 1503.3
298.15 K, x1 = 0.8906 | 1013.76 | 1524.8
298.15 K, x1 = 1 | 1027.79 | 1544.6
303.15 K, x1 = 0.0997 | 816.101 | 1291.8
303.15 K, x1 = 0.2019 | 854.802 | 1325.7
303.15 K, x1 = 0.2953 | 885.193 | 1355.4
303.15 K, x1 = 0.4033 | 915.6 | 1387.9
303.15 K, x1 = 0.4999 | 939.067 | 1414.8
303.15 K, x1 = 0.5645 | 953.126 | 1430.7
303.15 K, x1 = 0.6971 | 978.597 | 1463.6
303.15 K, x1 = 0.7909 | 993.514 | 1483.2
303.15 K, x1 = 0.8906 | 1009.25 | 1505.1
303.15 K, x1 = 1 | 1023.33 | 1525.3
308.15 K, x1 = 0.0997 | 810.812 | 1272
308.15 K, x1 = 0.2019 | 849.665 | 1306
308.15 K, x1 = 0.2953 | 880.18 | 1335.8
308.15 K, x1 = 0.4033 | 910.709 | 1367.7
308.15 K, x1 = 0.4999 | 934.271 | 1394.8
308.15 K, x1 = 0.5645 | 948.386 | 1410.4
308.15 K, x1 = 0.6971 | 973.957 | 1443.4
308.15 K, x1 = 0.7909 | 988.935 | 1462.8
308.15 K, x1 = 0.8906 | 1004.73 | 1485.2
308.15 K, x1 = 1 | 1018.87 | 1506
313.15 K, x1 = 0.0997 | 805.495 | 1252.2
313.15 K, x1 = 0.2019 | 844.503 | 1286.4
313.15 K, x1 = 0.2953 | 875.146 | 1316.3
313.15 K, x1 = 0.4033 | 905.801 | 1347.6
313.15 K, x1 = 0.4999 | 929.461 | 1374.7
313.15 K, x1 = 0.5645 | 943.637 | 1390.2
313.15 K, x1 = 0.6971 | 969.311 | 1423.3
313.15 K, x1 = 0.7909 | 984.35 | 1442.6
313.15 K, x1 = 0.8906 | 1000.21 | 1465.5
313.15 K, x1 = 1 | 1014.41 | 1486.8
318.15 K, x1 = 0.0997 | 800.149 | 1232.4
318.15 K, x1 = 0.2019 | 839.318 | 1266.8
318.15 K, x1 = 0.2953 | 870.091 | 1296.9
318.15 K, x1 = 0.4999 | 924.64 | 1354.8
318.15 K, x1 = 0.7909 | 979.759 | 1422.4
318.15 K, x1 = 0.8906 | 995.681 | 1445.9
318.15 K, x1 = 1 | 1009.95 | 1467.8
318.16 K, x1 = 0.4033 | 900.875 | 1327.4
318.16 K, x1 = 0.5645 | 938.874 | 1370.2
318.16 K, x1 = 0.6971 | 964.657 | 1403.3
323.15 K, x1 = 0.4033 | 895.938 | 1307.5
323.16 K, x1 = 0.0997 | 794.775 | 1212.6
323.16 K, x1 = 0.2019 | 834.109 | 1247.3
323.16 K, x1 = 0.2953 | 865.017 | 1277.6
323.16 K, x1 = 0.4999 | 919.805 | 1335
323.16 K, x1 = 0.5645 | 934.1 | 1350.3
323.16 K, x1 = 0.6971 | 959.996 | 1383.4
323.16 K, x1 = 0.7909 | 975.164 | 1402.4
323.16 K, x1 = 0.8906 | 991.156 | 1426.5
323.16 K, x1 = 1 | 1005.48 | 1448.9
